Earlier results as cited in patent publication US6784266B2, “Dual stimuli-responsive hydrogels and their synthetic methods” (Korea Institute of Science and Technology, priority 2002, dated 2004).

Settings: pKa stated for the sulfonamide reagent; no measurement method described

pKa: 6.7
Compound: COc1ccc(NS(=O)(=O)c2ccc(N)cc2)nn1 [sulfamethoxypyridazine]
